Values of other authors, collected in paper PMC3653294 (Bioorganic & medicinal chemistry, 2013).

System: liver fibrosis

CCOc1nc2cccc(C(=O)O)c2n1Cc1ccc(-c2ccccc2-c2nnn[nH]2)cc1 [Candesartan]
effect on liver fibrosis: decreases liver fibrosis
